Data on three molecules can be found in PMC8231556, “Inhibiting Endothelial Cell Function in Normal and Tumor Angiogenesis Using BMP Type I Receptor Macrocyclic Kinase Inhibitors” (Cancers, 2021).

What all share (test): radiometric kinase profiling (33 PanQinase)
Common to all, as to format: biochemical

Assay [1] deals with T1, ACVR1B (Homo sapiens, UniProt P36896).
T1 construct: purchased Proqinase, Germany
T1 sequence (P36896 24-505): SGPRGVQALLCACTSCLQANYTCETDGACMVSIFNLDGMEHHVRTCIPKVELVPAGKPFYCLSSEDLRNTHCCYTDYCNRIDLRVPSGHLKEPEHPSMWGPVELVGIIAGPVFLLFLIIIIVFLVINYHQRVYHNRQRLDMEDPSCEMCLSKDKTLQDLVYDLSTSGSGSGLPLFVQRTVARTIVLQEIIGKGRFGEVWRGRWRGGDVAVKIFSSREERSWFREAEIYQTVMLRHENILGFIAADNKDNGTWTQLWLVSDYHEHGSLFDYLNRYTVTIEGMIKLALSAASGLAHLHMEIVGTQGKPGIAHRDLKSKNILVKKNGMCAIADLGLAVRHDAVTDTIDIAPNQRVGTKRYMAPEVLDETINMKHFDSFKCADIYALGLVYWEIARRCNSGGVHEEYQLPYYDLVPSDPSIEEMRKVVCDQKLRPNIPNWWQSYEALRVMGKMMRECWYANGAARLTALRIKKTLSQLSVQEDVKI
The following applies: read-out: Inhibitory effect (%) ACVR1B. The gist of the method: (§1)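 Enzyme/substrate mixes were incubated with [γ-33P]-ATP and compound (added as a 0.1 μM solution in 10% DMSO) at 30 °C for 60 min, then stopped with H3PO4 and washed with NaCl. 33P incorporation was scintillation-counted, and residual activity (%) was normalized to untreated control and background.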

The target of assay [2] is T2, BTK (Homo sapiens, UniProt Q06187).
T2 construct: purchased Proqinase, Germany
As to conditions: read-out: Inhibitory effect (%) BTK. Put shortly: as §1

Assay [3] concerns the target T3, HIPK1 (Homo sapiens, UniProt Q86Z02).
T3 construct: purchased ProQinase (33PanQinase Activity Assay)
As to conditions: read-out: Inhibitory effect (%) HIPK1. Put shortly: as §1

For assay [4], the target named is T4, JAK2 (Homo sapiens, UniProt O60674).
T4 construct: purchased ProQinase (33PanQinase Activity Assay)
As to conditions: read-out: Inhibitory effect (%) JAK2. Put shortly: as §1

The target of assay [5] is T5, MET (Homo sapiens, UniProt P08581).
T5 construct: purchased ProQinase (33PanQinase Activity Assay)
The following applies: read-out: Inhibitory effect (%) MET. Put shortly: as §1

Assay [6] concerns the target T6, PLK4 (Homo sapiens, UniProt O00444).
T6 construct: purchased ProQinase (33PanQinase Activity Assay)
T6 sequence (O00444 1-970): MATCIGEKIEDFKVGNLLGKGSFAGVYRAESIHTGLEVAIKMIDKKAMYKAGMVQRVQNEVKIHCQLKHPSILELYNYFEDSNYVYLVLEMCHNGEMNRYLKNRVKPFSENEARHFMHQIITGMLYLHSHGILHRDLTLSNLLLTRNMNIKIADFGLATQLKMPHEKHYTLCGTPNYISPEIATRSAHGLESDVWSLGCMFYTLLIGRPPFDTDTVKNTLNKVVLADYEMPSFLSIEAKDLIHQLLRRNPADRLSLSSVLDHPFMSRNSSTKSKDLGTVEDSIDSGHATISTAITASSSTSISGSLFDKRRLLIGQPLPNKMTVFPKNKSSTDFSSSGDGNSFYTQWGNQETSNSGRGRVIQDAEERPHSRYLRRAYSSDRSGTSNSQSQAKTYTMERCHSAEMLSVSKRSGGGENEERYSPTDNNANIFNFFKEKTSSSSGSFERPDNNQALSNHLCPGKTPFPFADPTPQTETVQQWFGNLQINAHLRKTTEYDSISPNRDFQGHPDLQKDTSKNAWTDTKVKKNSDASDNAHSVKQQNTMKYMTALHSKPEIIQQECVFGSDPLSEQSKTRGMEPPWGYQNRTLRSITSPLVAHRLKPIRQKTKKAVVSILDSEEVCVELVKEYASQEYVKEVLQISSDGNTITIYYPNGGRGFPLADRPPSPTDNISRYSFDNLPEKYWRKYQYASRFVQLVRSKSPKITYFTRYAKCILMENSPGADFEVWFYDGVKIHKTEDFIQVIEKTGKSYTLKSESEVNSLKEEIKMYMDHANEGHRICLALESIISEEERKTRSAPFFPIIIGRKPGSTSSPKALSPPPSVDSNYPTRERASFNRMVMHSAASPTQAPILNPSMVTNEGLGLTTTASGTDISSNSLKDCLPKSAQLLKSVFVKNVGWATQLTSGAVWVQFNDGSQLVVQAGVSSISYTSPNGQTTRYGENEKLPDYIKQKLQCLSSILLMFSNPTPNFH
The following applies: read-out: Inhibitory effect (%) PLK4. The gist of the method:
as §1

Assay [7] deals with T7, PTK2 (Homo sapiens, UniProt Q05397).
T7 construct: purchased ProQinase (33PanQinase Activity Assay)
The following applies: read-out: Inhibitory effect (%) PTK2. The gist of the method:
as §1

For assay [8], the target named is T8, RET (Homo sapiens, UniProt P07949).
T8 construct: purchased ProQinase (33PanQinase Activity Assay)
The following applies: read-out: Inhibitory effect (%) RET. Put shortly: as §1

T3 sequence (Q86Z02 whole entry): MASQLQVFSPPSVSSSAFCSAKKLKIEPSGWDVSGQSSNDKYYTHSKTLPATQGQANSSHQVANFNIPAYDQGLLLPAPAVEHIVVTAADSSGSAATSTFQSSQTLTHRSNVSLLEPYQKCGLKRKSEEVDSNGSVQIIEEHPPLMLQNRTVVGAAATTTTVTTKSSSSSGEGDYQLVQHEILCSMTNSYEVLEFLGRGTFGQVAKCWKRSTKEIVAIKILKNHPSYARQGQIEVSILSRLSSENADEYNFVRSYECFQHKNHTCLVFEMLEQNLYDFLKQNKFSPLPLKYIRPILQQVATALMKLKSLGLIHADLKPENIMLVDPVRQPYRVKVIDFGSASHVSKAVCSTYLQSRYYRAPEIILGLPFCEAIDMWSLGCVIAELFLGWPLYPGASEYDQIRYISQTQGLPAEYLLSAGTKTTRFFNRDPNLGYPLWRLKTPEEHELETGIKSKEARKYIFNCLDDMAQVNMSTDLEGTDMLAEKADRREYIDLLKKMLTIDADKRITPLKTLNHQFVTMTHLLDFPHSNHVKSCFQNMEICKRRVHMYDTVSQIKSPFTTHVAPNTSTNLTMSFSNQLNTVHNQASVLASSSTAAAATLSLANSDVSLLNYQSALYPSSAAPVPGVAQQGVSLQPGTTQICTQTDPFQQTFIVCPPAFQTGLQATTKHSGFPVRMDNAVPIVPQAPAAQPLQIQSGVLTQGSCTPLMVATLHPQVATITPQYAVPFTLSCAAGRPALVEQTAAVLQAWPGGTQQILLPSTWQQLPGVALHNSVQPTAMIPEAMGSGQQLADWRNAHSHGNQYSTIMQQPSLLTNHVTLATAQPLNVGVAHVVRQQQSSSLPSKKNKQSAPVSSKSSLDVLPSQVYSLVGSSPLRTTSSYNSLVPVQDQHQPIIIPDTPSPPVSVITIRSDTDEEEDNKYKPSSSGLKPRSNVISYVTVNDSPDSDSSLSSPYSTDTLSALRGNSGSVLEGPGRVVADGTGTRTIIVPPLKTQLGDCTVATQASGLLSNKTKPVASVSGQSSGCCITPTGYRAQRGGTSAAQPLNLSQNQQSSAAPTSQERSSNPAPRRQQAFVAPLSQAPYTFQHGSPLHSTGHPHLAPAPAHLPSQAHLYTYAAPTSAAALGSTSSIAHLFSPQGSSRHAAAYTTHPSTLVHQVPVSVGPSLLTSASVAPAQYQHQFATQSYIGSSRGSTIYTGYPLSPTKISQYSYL
T7 sequence (Q05397 whole entry): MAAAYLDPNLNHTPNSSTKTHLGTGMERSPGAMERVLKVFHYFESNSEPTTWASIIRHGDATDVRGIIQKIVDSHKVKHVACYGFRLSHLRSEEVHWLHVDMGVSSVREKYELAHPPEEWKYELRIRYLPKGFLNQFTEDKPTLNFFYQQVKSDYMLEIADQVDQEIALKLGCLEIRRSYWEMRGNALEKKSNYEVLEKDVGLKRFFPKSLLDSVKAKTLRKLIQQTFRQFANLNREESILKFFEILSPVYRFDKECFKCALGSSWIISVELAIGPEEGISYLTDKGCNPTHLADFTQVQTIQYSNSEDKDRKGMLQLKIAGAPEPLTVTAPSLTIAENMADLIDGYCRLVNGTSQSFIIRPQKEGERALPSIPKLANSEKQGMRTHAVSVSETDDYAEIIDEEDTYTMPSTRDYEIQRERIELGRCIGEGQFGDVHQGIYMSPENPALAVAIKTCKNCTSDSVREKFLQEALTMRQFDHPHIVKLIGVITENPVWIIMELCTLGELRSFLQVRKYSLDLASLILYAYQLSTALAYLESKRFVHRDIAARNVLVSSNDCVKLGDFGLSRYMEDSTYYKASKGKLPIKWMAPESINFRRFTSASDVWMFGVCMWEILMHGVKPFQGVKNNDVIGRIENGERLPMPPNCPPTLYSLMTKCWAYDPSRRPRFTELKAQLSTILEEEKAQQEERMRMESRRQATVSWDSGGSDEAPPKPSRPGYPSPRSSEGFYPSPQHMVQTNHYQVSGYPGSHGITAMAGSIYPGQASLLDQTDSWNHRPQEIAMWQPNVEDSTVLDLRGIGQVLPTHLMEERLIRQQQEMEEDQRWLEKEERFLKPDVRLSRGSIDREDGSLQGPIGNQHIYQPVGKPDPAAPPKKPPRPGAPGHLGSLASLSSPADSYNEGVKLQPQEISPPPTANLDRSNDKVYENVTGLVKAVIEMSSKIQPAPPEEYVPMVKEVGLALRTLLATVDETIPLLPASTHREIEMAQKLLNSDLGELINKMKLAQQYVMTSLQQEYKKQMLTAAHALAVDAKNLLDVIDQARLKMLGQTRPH
T2 sequence (Q06187 whole entry): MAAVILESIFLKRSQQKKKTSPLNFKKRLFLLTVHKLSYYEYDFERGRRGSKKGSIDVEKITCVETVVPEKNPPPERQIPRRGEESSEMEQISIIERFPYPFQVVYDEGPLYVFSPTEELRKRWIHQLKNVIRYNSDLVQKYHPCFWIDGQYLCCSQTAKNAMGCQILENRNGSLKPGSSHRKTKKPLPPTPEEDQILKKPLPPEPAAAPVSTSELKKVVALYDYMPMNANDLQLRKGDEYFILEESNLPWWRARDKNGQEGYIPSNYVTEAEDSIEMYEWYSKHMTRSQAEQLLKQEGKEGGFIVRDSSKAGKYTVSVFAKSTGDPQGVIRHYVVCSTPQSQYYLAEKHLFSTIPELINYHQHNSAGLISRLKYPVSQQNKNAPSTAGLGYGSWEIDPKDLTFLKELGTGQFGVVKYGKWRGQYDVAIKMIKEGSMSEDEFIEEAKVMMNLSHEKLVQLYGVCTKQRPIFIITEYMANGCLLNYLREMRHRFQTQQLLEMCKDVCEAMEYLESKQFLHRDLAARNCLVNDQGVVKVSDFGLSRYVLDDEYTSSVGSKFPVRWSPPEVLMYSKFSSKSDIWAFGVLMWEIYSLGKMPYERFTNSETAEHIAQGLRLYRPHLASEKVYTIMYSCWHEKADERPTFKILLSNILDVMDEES
T8 sequence (P07949 29-1114): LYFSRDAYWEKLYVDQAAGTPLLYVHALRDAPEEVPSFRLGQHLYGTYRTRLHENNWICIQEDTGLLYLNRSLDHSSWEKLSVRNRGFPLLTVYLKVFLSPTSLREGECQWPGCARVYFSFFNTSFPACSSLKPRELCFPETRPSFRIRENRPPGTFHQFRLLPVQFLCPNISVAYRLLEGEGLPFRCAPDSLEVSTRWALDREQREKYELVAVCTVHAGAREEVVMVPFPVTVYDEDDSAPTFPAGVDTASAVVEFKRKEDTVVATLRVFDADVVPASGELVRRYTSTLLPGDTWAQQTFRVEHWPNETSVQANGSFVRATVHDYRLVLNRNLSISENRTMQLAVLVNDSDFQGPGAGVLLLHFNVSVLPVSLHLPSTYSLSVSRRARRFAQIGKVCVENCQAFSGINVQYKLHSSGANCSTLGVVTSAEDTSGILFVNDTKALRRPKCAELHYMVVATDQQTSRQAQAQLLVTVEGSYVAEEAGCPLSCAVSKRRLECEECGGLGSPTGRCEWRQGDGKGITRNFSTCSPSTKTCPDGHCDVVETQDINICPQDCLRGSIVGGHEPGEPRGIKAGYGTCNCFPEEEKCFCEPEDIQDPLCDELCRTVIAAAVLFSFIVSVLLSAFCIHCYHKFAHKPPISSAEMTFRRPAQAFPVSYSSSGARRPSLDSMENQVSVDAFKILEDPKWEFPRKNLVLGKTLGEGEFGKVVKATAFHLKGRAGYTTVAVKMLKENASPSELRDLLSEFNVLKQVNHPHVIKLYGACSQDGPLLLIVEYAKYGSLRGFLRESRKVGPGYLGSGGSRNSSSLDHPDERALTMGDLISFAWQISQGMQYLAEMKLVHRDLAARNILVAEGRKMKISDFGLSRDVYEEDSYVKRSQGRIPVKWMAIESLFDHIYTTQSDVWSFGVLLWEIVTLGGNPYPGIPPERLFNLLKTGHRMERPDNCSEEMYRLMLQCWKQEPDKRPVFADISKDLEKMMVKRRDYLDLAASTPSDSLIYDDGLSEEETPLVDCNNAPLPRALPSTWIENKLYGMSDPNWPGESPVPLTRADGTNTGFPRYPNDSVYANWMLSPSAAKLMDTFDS

Consider `c1ccc2c(-c3cnn4cc(-c5ccc(N6CCNCC6)cc5)cnc34)ccnc2c1` [LDN-193189, reference compound], for which the inhibition at 0.1 µM in assay [1] is 23.9%; in assay [2] it was -12.4%; in assay [3] it was -13.4%; in assay [4], 5.83%; in assay [5], 1.47%; in assay [6], -34.4%. For the same molecule, the inhibition at 0.1 µM in assay [7] worked out at 4.03%; in assay [8], 10.8%.
Consider `CN1CCc2cccc(c2)Nc2nccc(n2)N2CCCc3cc(ccc32)C1` [OD16], for which the inhibition at 0.1 µM in assay [1] was 7.78%; in assay [2], -12%; in assay [3] it was -7.23%; in assay [4], 50.2%; in assay [5], 5.95%; in assay [6] it was 41.4%. Further, the inhibition at 0.1 µM was 17.1% in assay [7] and -29.1% in assay [8].
With `CN1CCC(=O)NCCNc2ccn3ncc(c3n2)-c2cccc(c2)C1` [OD29], the inhibition at 0.1 µM is 5.71% in assay [1]; 7.22% in assay [2]; 6.23% in assay [3]; 14.4% in assay [4]; -3.42% in assay [5]; 4.1% in assay [6]. Further, the inhibition at 0.1 µM in assay [7] was -0.22%; in assay [8] it was 27.1%.
